Laboratory results published in patent US7951956B2, “Benzoimidazole compound capable of inhibiting prostaglandin D synthetase” (Taiho Pharmaceuticals Co., Ltd., priority 2005, dated 2011).

target: human hematopoietic synthase (Homo sapiens, UniProt O60760); test: Hematopoietic synthase inhibitory activity (Experiment 1); assay type: biochemical; settings: [14C] prostaglandin H2 10 μM, preincubated at 25° C. for 5 minutes, 1 minute reaction; read-out: Concentration of Pharmaceutical Compound Required to Inhibit 50% of Hematopoietic Synthase
Sequence (O60760 whole entry): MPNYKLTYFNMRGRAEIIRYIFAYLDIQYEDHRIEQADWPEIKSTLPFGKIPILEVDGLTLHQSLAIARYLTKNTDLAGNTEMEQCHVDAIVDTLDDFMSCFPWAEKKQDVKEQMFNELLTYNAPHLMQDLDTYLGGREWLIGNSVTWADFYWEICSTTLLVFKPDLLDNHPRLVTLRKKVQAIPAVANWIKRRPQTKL
Experimental: Experiment 1 was carried out according to the method of Urade, Y. et al. (J. Biol. Chem. 262, 3820-3825, (1987)). More specifically, the reaction mixture (49 μL); 100 mM Tris-HCl (pH 8.0), 1 mM reduced glutathione, 0.1 mg/mL γ-globulin, and human hematopoietic synthase (quantum sufficient), and a test compound (final concentration: 0.01-100 μM) were preincubated at 25° C. for 5 minutes. In place of the test compound, a DMSO solution (final concentration: 1%) was used in the solvent control group (Control Group). Subsequently, 1 μL of [^14C] prostaglandin H2 (final concentration: 10 μM) was added to start the reaction. One minute after the start of the reaction, 250 μL of a reaction stopper solution (diethylether/methanol/1M citric acid (30/4/1) cooled to −20° C. was added to stop the reaction.
Thereafter, 50 μL of the upper layer portion (organic solvent phase) was applied to a TLC plate and developed at −20° C. for 45 minutes (developer: diethylether/methanol/acetic acid (capacity ratio=90/2/1)). After drying the plate, the plate was exposed to an imaging plate for 1 to 24 hours, and the radioactivity corresponding to prostaglandin D2 was analyzed using an image analyzer (product of FUJIFILM Corporation). The area (%) occupied by the prostaglandin D2 band per lane was calculated, and the concentration of the test compound required to inhibit 50% of the hematopoietic synthase (IC50 value) was calculated by comparison with the Control group in each experiment.

Compound	IC50 [nM]
CCOC(=O)c1[nH]c(C)c(-c2nc3cc(Sc4ccncc4)c(Oc4ccccc4)cc3[nH]2)c1C [Comparative Example 1, 4-(5-(4-Pyridylsulfenyl)-6-phenoxybenzimidazole-2-yl)-3,5-dimethylpyrrole-2-carboxylic acid ethyl ester, reference compound]	> 30000
Cc1[nH]c(C(=O)N(C)C)c(C)c1-c1nc2cc(Sc3ccncc3)c(Oc3ccccc3)cc2[nH]1 [Comparative Example 2, (N,N-Dimethyl)-4-(5-(4-pyridylsulfenyl)-6-phenoxybenzimidazole-2-yl)-3,5-dimethylpyrrole-2-carboxamide, reference compound]	> 30000
O=C(c1ccccc1)c1ccc2[nH]c(-c3ccc(P(=O)(O)O)o3)nc2c1 [Comparative Example 3, 5-Benzophenone-2-(2-phosphono-5-furanyl)benzimidazole dihydrate, reference compound]	29300
Cc1oc(C(=O)NCc2ccc3c(c2)OCO3)c(C)c1-c1nc2cc(C(=O)c3ccccc3)ccc2[nH]1 [Compound 4, N-(3,4-Methylenedioxyphenyl)methyl-4-(5-benzoylbenzimidazol-2-yl)-3,5-dimethylfuran-2-carboxamide]	278
Cc1[nH]c(C(=O)O)c(C)c1-c1nc2cc(C(=O)c3ccccc3)ccc2[nH]1 [Compound 10, 4-(5-Benzoylbenzimidazol-2-yl)-3,5-dimethylpyrrole-2-carboxylic acid]	436
CONC(=O)c1[nH]c(C)c(-c2nc3cc(C(=O)c4ccccc4)ccc3[nH]2)c1C [Compound 14, N-(Methoxy)-4-(5-benzoylbenzimidazol-2-yl)-3,5-dimethylpyrrole-2-carboxamide]	355
COCCCNC(=O)c1[nH]c(C)c(-c2nc3cc(C(=O)c4ccccc4)ccc3[nH]2)c1C [Compound 16, N-(3-Methoxypropyl)-4-(5-benzoylbenzimidazol-2-yl)-3,5-dimethylpyrrole-2-carboxamide]	2280
CCOC(=O)CCNC(=O)c1[nH]c(C)c(-c2nc3cc(C(=O)c4ccccc4)ccc3[nH]2)c1C [Compound 19, N-(2-Ethoxycarbonylethyl)-4-(5-benzoylbenzimidazol-2-yl)-3,5-dimethylpyrrole-2-carboxamide]	874
COC(=O)CNC(=O)c1[nH]c(C)c(-c2nc3cc(C(=O)c4ccccc4)ccc3[nH]2)c1C [Compound 20, N-(1-Methoxycarbonylmethyl)-4-(5-benzoylbenzimidazol-2-yl)-3,5-dimethylpyrrole-2-carboxamide]	871
Cc1[nH]c(C(=O)NCC(=O)O)c(C)c1-c1nc2cc(C(=O)c3ccccc3)ccc2[nH]1 [Compound 22, N-(1-Carboxymethyl)-4-(5-benzoylbenzimidazol-2-yl)-3,5-dimethylpyrrole-2-carboxamide]	829

Stronger by IC50, values ahead:

IC50 [nM]	Compound
269	Cc1[nH]c(C(=O)N(C)CCN(C)C)c(C)c1-c1nc2cc(C(=O)c3ccccc3)ccc2[nH]1 [Compound 11, N-Methyl-N-(2-dimethylaminoethyl)-4-(5-benzoylbenzimidazol-2-yl)-3,5-dimethylpyrrole-2-carboxamide]
100	Cc1[nH]c(C(N)=O)c(C)c1-c1nc2cc(C(=O)c3ccccc3)ccc2[nH]1 [Compound 12, 4-(5-Benzoylbenzimidazol-2-yl)-3,5-dimethylpyrrole-2-carboxamide]
124	Cc1[nH]c(C(=O)NCCCN(C)C)c(C)c1-c1nc2cc(C(=O)c3ccccc3)ccc2[nH]1 [Compound 17, N-(3-Dimethylaminopropyl)-4-(5-benzoylbenzimidazol-2-yl)-3,5-dimethylpyrrole-2-carboxamide]
80	CC(=O)NCCNC(=O)c1[nH]c(C)c(-c2nc3cc(C(=O)c4ccccc4)ccc3[nH]2)c1C [Compound 18, N-(2-Acetamidoethyl)-4-(5-benzoylbenzimidazol-2-yl)-3,5-dimethylpyrrole-2-carboxamide]
